Molecular target: T1, full-length beta-Catenin (Uniprot ID P35222) (Homo sapiens, UniProt P35222)
T1 construct: 10 nM full-length beta-Catenin (Uniprot ID P35222)
T1 sequence (P35222 1-781): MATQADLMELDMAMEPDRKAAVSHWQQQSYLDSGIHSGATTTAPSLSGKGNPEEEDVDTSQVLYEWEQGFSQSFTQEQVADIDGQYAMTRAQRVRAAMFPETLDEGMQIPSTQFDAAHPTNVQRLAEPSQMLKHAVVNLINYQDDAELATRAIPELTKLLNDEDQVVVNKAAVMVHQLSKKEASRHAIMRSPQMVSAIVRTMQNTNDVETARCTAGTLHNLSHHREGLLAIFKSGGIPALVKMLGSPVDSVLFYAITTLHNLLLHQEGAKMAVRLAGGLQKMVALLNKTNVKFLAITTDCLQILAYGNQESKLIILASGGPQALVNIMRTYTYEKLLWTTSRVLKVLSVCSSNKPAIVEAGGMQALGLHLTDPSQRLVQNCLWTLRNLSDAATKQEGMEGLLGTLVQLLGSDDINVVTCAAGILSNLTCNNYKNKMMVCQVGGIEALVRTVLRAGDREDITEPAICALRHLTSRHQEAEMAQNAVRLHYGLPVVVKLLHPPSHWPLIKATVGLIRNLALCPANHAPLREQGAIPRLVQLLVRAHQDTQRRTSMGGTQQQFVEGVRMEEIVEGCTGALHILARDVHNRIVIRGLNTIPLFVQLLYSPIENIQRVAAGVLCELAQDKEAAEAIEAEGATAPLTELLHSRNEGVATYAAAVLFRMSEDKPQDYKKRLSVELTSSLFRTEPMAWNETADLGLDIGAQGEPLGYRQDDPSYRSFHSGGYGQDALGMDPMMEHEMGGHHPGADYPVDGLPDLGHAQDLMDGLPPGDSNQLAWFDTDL
Assay: Fluorescence polarization IC50 (beta-catenin / 5FAM-TCF4 10-53 competition)
Type: binding
Conditions: fluorescence polarization; read-out: beta-Catenin FP IC50

| IC50 [nM] | Compound |
| --- | --- |
| 313 | CC(=O)N1CCC[C@]12CC=CCCCC1(CCCC=CCOC(=O)N(C)CC[C@@](C)(C(=O)N[C@@H](Cc3ccsc3)C(=O)N[C@@H](Cc3csc4ccccc34)C(=O)N[C@@H](CCC(N)=O)C(N)=O)NC(=O)[C@H](CC(C)C)NC(=O)[C@H](Cc3ccccc3)NC(=O)[C@H](C)NC(=O)[C@H](C)NC(=O)[C@H](CC(=O)O)NC(=O)[C@H](CC(=O)O)NC1=O)NC(=O)[C@H](CC(C)(C)C)NC(=O)[C@H](CC(=O)O)NC2=O (stereo partly drawn) [I-1830, Ac-PL3-Asp-Npg-B5-Asp-Asp-Ala-Ala-Phe-Leu-SdN-3Thi-BztA-Gln-NH2] |
| 22 | CC(=O)N1CCC[C@]12CC=CCCCC1(CCCC=CCCCOC(=O)N3CC[C@@](C(=O)N[C@@H](Cc4ccsc4)C(=O)N[C@@H](Cc4csc5ccccc45)C(=O)N[C@@H](CCC(N)=O)C(N)=O)(C3)NC(=O)[C@H](CC(C)C)NC(=O)[C@H](Cc3ccccc3)NC(=O)[C@H](C)NC(=O)[C@H](C)NC(=O)[C@H](CN3CCC[C@H](C(=O)O)C3)NC(=O)[C@H](CC(=O)O)NC1=O)NC(=O)[C@H](CC(C)(C)C)NC(=O)[C@H](CC(=O)O)NC2=O (stereo partly drawn) [I-1921, Ac-PL3-Asp-Npg-B5-Asp-S3COOPipA-Ala-Ala-Phe-Leu-PyrS2-3Thi-BztA-Gln-NH2] |
| 12 | CC(=O)N1CCC[C@]12CC=CCCCC1(CCCC=CCCCOC(=O)N3CC[C@@](C(=O)N[C@@H](Cc4ccsc4)C(=O)N[C@@H](Cc4csc5ccccc45)C(=O)N[C@@H](CCC(N)=O)C(N)=O)(C3)NC(=O)[C@H](Cn3cc(CN4CCS(=O)(=O)CC4)nn3)NC(=O)[C@H](Cc3ccccc3)NC(=O)[C@H](C)NC(=O)[C@H](C)NC(=O)[C@H](CN(CC(=O)O)CC(F)(F)F)NC(=O)[C@H](CC(=O)O)NC1=O)NC(=O)[C@H](CC(C)(C)C)NC(=O)[C@H](CC(=O)O)NC2=O (stereo partly drawn) [I-1868, Ac-PL3-Asp-Npg-B5-Asp-TfeGA-Ala-Ala-Phe-[SO2MorphCH2]TriAzDap-PyrS2-3Thi-BztA-Gln-NH2] |
| 245 | CC(=O)N1CCC[C@]12CC=CCCCCC1(CCCCC=CCCCOC(=O)N3CC[C@@](C(=O)N[C@@H](Cc4ccccc4C(F)(F)F)C(=O)N[C@@H](Cc4csc5ccccc45)C(=O)N[C@@H](CCC(N)=O)C(N)=O)(C3)NC(=O)[C@H](CC(C)C)NC(=O)[C@H](Cc3ccccc3)NC(=O)[C@H](C)NC(=O)[C@H](C)NC(=O)[C@H](Cc3cccc(C(=O)O)c3)NC(=O)[C@H](CC(=O)O)NC1=O)NC(=O)[C@H](CC(C)(C)C)NC(=O)[C@H](CC(=O)O)NC2=O (stereo partly drawn) [I-2512, Ac-PL3-Asp-Npg-B6-Asp-3COOHF-Ala-Ala-Phe-Leu-PyrS2-2F3MeF-BztA-Gln-NH2] |
| 1110 | CC(=O)N1CCC[C@]12CC=CCCCC1(CCCC=CCCCOC(=O)N3CC[C@@](C(=O)N[C@@H](Cc4ccsc4)C(=O)N[C@@H](Cc4csc5ccccc45)C(=O)N[C@@H](CCC(N)=O)C(N)=O)(C3)NC(=O)[C@H](CC(C)C)NC(=O)[C@H](Cn3cc(CN4CCOCC4)nn3)NC(=O)[C@H](C)NC(=O)[C@H](C)NC(=O)[C@H](CN(CC(=O)O)CC(F)(F)F)NC(=O)[C@H](CC(=O)O)NC1=O)NC(=O)[C@H](CC(C)(C)C)NC(=O)[C@H](CC(=O)O)NC2=O (stereo partly drawn) [I-1858, Ac-PL3-Asp-Npg-B5-Asp-TfeGA-Ala-Ala-[MorphCH2]TriAzDap-Leu-PyrS2-3Thi-BztA-Gln-NH2] |
| 109 | CC(=O)N1CCC[C@]12CC=CCCCC1(CCCC=CCCCOC(=O)N3CC[C@@](C(=O)N[C@@H](Cc4ccccc4Cl)C(=O)N[C@@H](Cc4csc5ccccc45)C(=O)N[C@@H](Cc4ccccc4)C(N)=O)(C3)NC(=O)[C@H](C)NC(=O)[C@H](Cc3ccccc3)NC(=O)[C@H](C)NC(=O)[C@H](C)NC(=O)[C@H](Cc3cccc(C(=O)O)c3)NC(=O)[C@H](CC(=O)O)NC1=O)NC(=O)[C@H](CC(C)(C)C)NC(=O)[C@H](CC(=O)O)NC2=O (stereo partly drawn) [I-2025, Ac-PL3-Asp-Npg-B5-Asp-3COOHF-Ala-Ala-Phe-Ala-PyrS2-2C1F-BztA-Phe-NH2] |
| 107 | CC(=O)N1CCC[C@]12CCCCCCC1(CCCCCCCCOC(=O)N3CC[C@@](C(=O)N[C@@H](Cc4ccccc4Cl)C(=O)N[C@@H](Cc4csc5ccccc45)C(=O)N[C@@H](CCC(N)=O)C(N)=O)(C3)NC(=O)[C@H]([C@@H](C)O)NC(=O)[C@H](Cc3ccccc3)NC(=O)[C@H](C)NC(=O)[C@H](C)NC(=O)[C@H](CN(CC(=O)O)CC(F)(F)F)NC(=O)[C@H](CC(=O)O)NC1=O)NC(=O)[C@H](CC(C)(C)C)NC(=O)[C@H](CC(=O)O)NC2=O (stereo partly drawn) [I-1606, Ac-PL3-Asp-Npg-B5-Asp-TfeGA-Ala-Ala-Phe-Thr-PyrS2-2C1F-BztA-Gln-NH2] |
| 3860 | CC(=O)N1CCC[C@]12CC=CCCCC1(CCCC=CCCCOC(=O)N3CC[C@@](C(=O)N[C@@H](Cc4ccsc4)C(=O)N[C@@H](Cc4csc5ccccc45)C(=O)N[C@@H](CCC(N)=O)C(N)=O)(C3)NC(=O)[C@H](CC(N)=O)NC(=O)[C@H](Cc3ccccc3)NC(=O)[C@H](C)NC(=O)[C@H](C)NC(=O)[C@H](CC(=O)O)NC(=O)[C@H](CC(=O)O)NC1=O)NC(=O)[C@H](CC(C)(C)C)NC(=O)[C@H](Cn1cc(C(C)(C)C(=O)O)nn1)NC2=O (stereo partly drawn) [I-2330, Ac-PL3-[CMe2CO2H]TriAzDap-Npg-B5-Asp-Asp-Ala-Ala-Phe-Asn-PyrS2-3Thi-BztA-Gln-NH2] |
| 150 | CC(=O)N1CCC[C@]12CCCCCC1(CCCCCCCCOC(=O)N3CC[C@@](C(=O)N[C@@H](Cc4ccsc4)C(=O)N[C@@H](Cc4csc5ccccc45)C(=O)N[C@@H](CCC(N)=O)C(N)=O)(C3)NC(=O)[C@H](CC(C)C)NC(=O)[C@H](Cc3ccccc3)NC(=O)[C@H](C)NC(=O)[C@H](C)NC(=O)[C@H](CC(=O)O)NC(=O)[C@H](CC(=O)O)NC1=O)NC(=O)[C@H](CC(C)(C)C)NC(=O)[C@H](CC(=O)O)NC2=O (stereo partly drawn) [I-1976, Ac-PL3-Asp-Npg-B4-Asp-Asp-Ala-Ala-Phe-Leu-PyrS3-3Thi-BztA-Gln-NH2] |
| 463 | CCOC(=O)C[C@@H]1NC(=O)[C@H](CC(=O)O)NC(=O)C2(CCCC=CCCCOC(=O)N3CC[C@@](C(=O)N[C@@H](Cc4ccsc4)C(=O)N[C@@H](Cc4csc5ccccc45)C(=O)N[C@@H](CCC(N)=O)C(N)=O)(C3)NC(=O)[C@H](CC(C)C)NC(=O)[C@H](Cc3ccccc3)NC(=O)[C@H](C)NC(=O)[C@H](C)NC1=O)CCCC=CC[C@]1(CCCN1C(C)=O)C(=O)N[C@@H](CC(=O)O)C(=O)N[C@@H](CC(C)(C)C)C(=O)N2 (stereo partly drawn) [I-2358, Ac-PL3-Asp-Npg-B5-Asp-[Et]AspE-Ala-Ala-Phe-Leu-PyrS2-3Thi-BztA-Gln-NH2] |
| 5 | CC(=O)N1CCC[C@]12CC=CCCCC1(CCCC=CCCCOC(=O)N3CC[C@@](C(=O)N[C@@H](Cc4ccccc4Cl)C(=O)N[C@@H](Cc4csc5ccccc45)C(=O)N[C@@H](CN4CCOCC4)C(N)=O)(C3)NC(=O)[C@H](CC(N)=O)NC(=O)[C@H](Cc3ccccc3)NC(=O)[C@H](C)NC(=O)[C@H](C)NC(=O)[C@H](CC(=O)O)NC(=O)[C@H](CC(=O)O)NC1=O)NC(=O)[C@H](CC(C)(C)C)NC(=O)[C@H](CC(=O)O)NC2=O (stereo partly drawn) [I-1133, Ac-PL3-Asp-Npg-B5-Asp-Asp-Ala-Ala-Phe-Asn-PyrS2-2C1F-BztA-MorphAla-NH2] |
| 266 | CC(=O)N1CCC[C@]12CC=CCCCC1(CCCC=CCCCOC(=O)N3CC[C@@](C(=O)N[C@@H](Cc4ccsc4)C(=O)N[C@@H](Cc4csc5ccccc45)C(=O)N[C@@H](CCC(N)=O)C(N)=O)(C3)NC(=O)[C@H]([C@@H](C)O)NC(=O)[C@H](Cc3ccccc3)NC(=O)[C@H](C)NC(=O)[C@H](C)NC(=O)[C@H]([C@@H](C)O)NC(=O)[C@H](CC(N)=O)NC1=O)NC(=O)[C@H](CC(C)(C)C)NC(=O)[C@H](CC(=O)O)NC2=O (stereo partly drawn) [I-1621, Ac-PL3-Asp-Npg-B5-Asn-Thr-Ala-Ala-Phe-Thr-PyrS2-3Thi-BztA-Gln-NH2] |
| 5 | CC(=O)N1CCC[C@]12CC=CCCCC1(CCCC=CCCCOC(=O)N3CC[C@@](C(=O)N[C@@H](Cc4ccsc4)C(=O)N[C@@H](Cc4csc5ccccc45)C(=O)N[C@@H](CCC(N)=O)C(N)=O)(C3)NC(=O)[C@H](CC(C)C)NC(=O)[C@H](Cc3ccccc3)NC(=O)[C@H](C)NC(=O)[C@H](C)NC(=O)[C@H](Cn3cc(CC4(C(=O)O)CCCCC4)nn3)NC(=O)[C@H](CC(=O)O)NC1=O)NC(=O)[C@H](CC(C)(C)C)NC(=O)[C@H](CC(=O)O)NC2=O (stereo partly drawn) [I-2483, Ac-PL3-Asp-Npg-B5-Asp-[CH2CChCO2H]TriAzDap-Ala-Ala-Phe-Leu-PyrS2-3Thi-BztA-Gln-NH2] |
| 31 | CC(=O)N1CCC[C@]12CC=CCCCC1(CCCC=CCCCOC(=O)N3CC[C@@](C(=O)N[C@@H](Cc4ccsc4)C(=O)N[C@@H](Cc4csc5ccccc45)C(=O)N[C@@H](CCC(N)=O)C(N)=O)(C3)NC(=O)[C@H](CC(N)=O)NC(=O)[C@H](Cc3ccccc3)NC(=O)[C@H](C)NC(=O)[C@H](C)NC(=O)[C@H](CCc3ccc(O)cc3)NC(=O)[C@H](CC(=O)O)NC1=O)NC(=O)[C@H](CC(C)(C)C)NC(=O)[C@H](CC(=O)O)NC2=O (stereo partly drawn) [I-1785, Ac-PL3-Asp-Npg-B5-Asp-hTyr-Ala-Ala-Phe-Asn-PyrS2-3Thi-BztA-Gln-NH2] |

Reference: patent US20240116985A1, “STAPLED PEPTIDES AND METHODS THEREOF” (priority 2020, published 2024)
